Reference: the supplement of paper PMC10307832

What was measured:
Assay in all cases: relative viability (nuclei count vs DMSO), 5 days (fraction); higher = more cells survive
[1] = compound: COc1cc2nc(N3CCCN(C)CC3)nc(NC3CCN(Cc4ccccc4)CC3)c2cc1OC + NC(=O)Nc1cc(-c2cccc(F)c2)sc1C(=O)N[C@H]1CCCNC1 [AZD7762] (partner 0.2 µM)
In short: (§1)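 Lung cancer cell lines in 1536-well plates were dosed by pin tool the day after seeding, either with one drug alone or with a fixed anchor-drug dose plus five library-drug doses (not always all listed) in √10 steps. After 5 days, cells were fixed and their nuclei stained in one step (final 0.05% Triton X-100, 1% formaldehyde, 1 ug/ml Hoechst), then counted on 4× images. Relative viability is the nuclei count in treated wells divided by that in vehicle wells. Values are medians of duplicate plates.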

[2] = compound: COc1cc2nc(N3CCCN(C)CC3)nc(NC3CCN(Cc4ccccc4)CC3)c2cc1OC + CC(=O)c1c(C)c2cnc(Nc3ccc(N4CCNCC4)cn3)nc2n(C2CCCC2)c1=O [Palbociclib] (partner 0.5 µM)
In short: as §1

[3] = compound: COc1cc2nc(N3CCCN(C)CC3)nc(NC3CCN(Cc4ccccc4)CC3)c2cc1OC + CCNC(=O)c1noc(-c2cc(C(C)C)c(O)cc2O)c1-c1ccc(CN2CCOCC2)cc1 [Luminespib] (partner 0.01 µM)
In short: as §1

[4] = compound: Cc1cc([C@@H](C)Nc2ccccc2C(=O)O)c2nc(N3CCOCC3)cc(=O)n2c1 [AZD6482] + CC(=O)c1c(C)c2cnc(Nc3ccc(N4CCNCC4)cn3)nc2n(C2CCCC2)c1=O [Palbociclib] (partner 0.5 µM)
In short: as §1

Cell Line | relative viability ([1]; first compound 0.2 µM) | relative viability ([1]; first compound 0.6325 µM) | relative viability ([1]; first compound 2 µM) | relative viability ([1]; first compound 6.325 µM) | relative viability ([2]; first compound 0.2 µM) | relative viability ([2]; first compound 0.6325 µM) | relative viability ([2]; first compound 2 µM) | relative viability ([2]; first compound 6.325 µM) | relative viability ([3]; first compound 0.2 µM) | relative viability ([3]; first compound 0.6325 µM) | relative viability ([3]; first compound 2 µM) | relative viability ([3]; first compound 6.325 µM) | relative viability ([4]; first compound 0.08 µM) | relative viability ([4]; first compound 0.253 µM) | relative viability ([4]; first compound 0.8 µM) | relative viability ([4]; first compound 2.53 µM) | relative viability ([4]; first compound 8 µM)
HCC-44 | 1.04 | 0.995 | 0.994 | 1.01 | 0.956 | 0.951 | 0.995 | 0.956 | 0.96 | 1.08 | 1.34 | 1.34 | 0.858 | 0.988 | 1.04 | 1.05 | 1.26
HCC-827 | 0.199 | 0.213 | 0.15 | 0.238 | 0.478 | 0.448 | 0.437 | 0.446 | 0.627 | 0.555 | 0.634 | 0.612 | 0.437 | 0.504 | 0.435 | 0.378 | 0.229
NCI-H1623 | – | – | – | – | – | – | – | – | 0.493 | 0.586 | 0.502 | 0.513 | – | – | – | – | –
NCI-H2347 | 0.697 | 0.714 | 0.839 | 0.76 | 0.46 | 0.433 | 0.385 | 0.422 | 0.57 | 0.521 | 0.446 | 0.524 | 0.35 | 0.389 | 0.406 | 0.394 | 0.389
PC-14 | 0.343 | 0.382 | 0.357 | 0.257 | 0.536 | 0.477 | 0.446 | 0.0369 | 0.123 | 0.242 | 0.162 | 0.122 | 0.447 | 0.524 | 0.578 | 0.503 | 0.519
NCI-H1651 | 0.446 | 0.373 | 0.452 | 0.502 | 0.518 | 0.5 | 0.515 | 0.522 | 0.905 | 0.846 | 1.14 | 0.804 | 0.485 | 0.493 | 0.508 | 0.486 | 0.496
NCI-H1650 | – | – | – | – | 0.243 | 0.448 | 0.328 | 0.287 | 0.181 | 0.19 | 0.197 | 0.174 | 0.312 | 0.271 | 0.269 | 0.267 | 0.288
HCC-78 | 0.588 | 0.675 | 0.67 | 0.717 | 0.491 | 0.448 | 0.508 | 0.463 | – | – | – | – | 0.402 | 0.449 | 0.4 | 0.378 | 0.427
NCI-H1563 | – | – | – | – | – | – | – | – | 0.544 | 0.515 | 0.506 | 0.507 | – | – | – | – | –
COR-L23 | – | – | – | – | 0.34 | 0.266 | 0.362 | 0.265 | 0.752 | 0.731 | 0.761 | 0.614 | 0.223 | 0.28 | 0.305 | 0.338 | 0.224
NCI-H1703 | 0.118 | – | 0.125 | 0.184 | – | – | – | – | – | – | – | – | – | – | – | – | –
SK-LU-1 | – | – | – | – | 0.409 | 0.353 | 0.394 | 0.375 | 0.184 | 0.213 | 0.197 | 0.178 | – | 0.346 | 0.376 | 0.315 | 0.387
COR-L 105 | – | – | – | – | 0.375 | 0.398 | 0.364 | 0.396 | 0.948 | 0.899 | 1.02 | 0.469 | 0.419 | 0.434 | 0.434 | 0.492 | 0.376
HCC-366 | 0.232 | 0.203 | 0.272 | 0.258 | 0.373 | 0.404 | 0.396 | 0.409 | – | – | – | – | 0.334 | 0.367 | 0.385 | 0.35 | 0.229
NCI-H1648 | – | 0.708 | – | 0.68 | – | 0.293 | – | 0.272 | – | – | – | – | 0.313 | 0.275 | 0.265 | – | 0.242
NCI-H596 | 1.16 | 1.03 | 1.23 | 1.06 | – | – | – | – | 0.87 | 0.871 | 0.927 | 1.02 | – | – | – | – | –
NCI-H2228 | – | – | – | – | 0.63 | 0.808 | 0.835 | 0.509 | 0.162 | 0.12 | 0.138 | 0.101 | 0.374 | 0.565 | 0.682 | 0.653 | 0.679
SK-MES-1 | – | – | – | – | 0.319 | 0.304 | 0.295 | 0.106 | 0.836 | 0.702 | 0.889 | 0.129 | 0.282 | 0.293 | 0.295 | 0.282 | 0.301
SW 1573 | – | – | – | – | 0.365 | 0.417 | 0.377 | 0.196 | 0.179 | 0.27 | 0.356 | 0.152 | 0.296 | 0.351 | 0.328 | 0.282 | 0.218
NCI-H661 | – | – | – | – | 0.417 | 0.429 | 0.426 | 0.387 | 0.903 | 0.894 | 0.911 | 0.957 | 0.41 | 0.43 | 0.41 | 0.387 | 0.364
NCI-H520 | – | – | – | – | 0.168 | 0.259 | 0.25 | 0.148 | 0.321 | 0.227 | 0.27 | 0.214 | 0.123 | 0.157 | 0.179 | 0.146 | 0.15
NCI-H2023 | – | – | – | – | 0.379 | 0.337 | 0.4 | 0.0878 | 0.818 | 0.646 | 0.637 | 0.134 | 0.265 | 0.328 | 0.405 | 0.277 | 0.226
NCI-H2009 | – | – | – | – | 0.222 | 0.253 | 0.413 | 0.24 | 1.05 | 1.08 | 1.06 | 0.937 | 0.187 | 0.176 | 0.172 | 0.124 | 0.119
